Measurements published in patent US9771430B2, “Method of treating a metabolic disorder induced by obesity in a subject in need thereof by administering MK2/3 inhibitors” (THE TRUSTEES OF COLUMBIA UNIVERSITY IN THE CITY OF NEW YORK, priority 2011, dated 2017).

Legend:
[1] = test system: CaMKII; type: cell-based, mouse
Description: FIG. 1A. CaMKII enzyme activity was assayed in triplicate wells of primary mouse HCs stimulated with 100 nM glucagon (Gluc) or vehicle control (Veh) for the indicated times (*P<0.05 and **P<0.01 vs. Veh; mean±S.E.M.). FIGS. 1B-1J. Extracts of HCs or liver were probed for phospho-CaMKII, total CaMKII, and β-actin by immunoblot assay. FIG. 1B. HCs were incubated with […] glucagon for the indicated times; FIG. 1C. Glucagon was added to HCs that were pre-treated for 1 h with vehicle control (Veh) or 5 μM BAPTA-AM; FIG. 1D. Glucagon was added to HCs that were pre-treated with 0.5 μM xestospongin (XesC) or to HCs from Ip3r1fl/fl mice transduced with adeno-LacZ control or adeno-Cre (bar graph=Ip3r1 mRNA levels); FIG. 1E. Glucagon was added to HCs that were pre-treated for 1 h with vehicle control (Veh) or 10 μM H89. FIG. 1F. […] FIGS. 1G-1J. In vivo experiments. In FIG. 1G, mice were treated for 30 min with 200 μg kg−1 body weight of glucagon i.p., and in FIG. 1H, mice were pre-treated with 10 pmol g−1 xestospongin C or vehicle control i.p. 4 days prior to glucagon treatment. In FIGS. 1I-1J, mice were fed ad libitum or fasted for 12 h, or fasted for 12 h and then re-fed for 4 h.
Total RNA was extracted from hepatocytes using the RNeasy kit (Qiagen). cDNA was synthesized from 2 μg total RNA using oligo (dT) and Superscript II (Invitrogen). Real-time qPCR analysis and western blotting were performed as previously described (Timmins et al., 2009). Nuclear extraction from liver was performed using the Nuclear Extraction Kit from Panomics according to the manufacturer's instructions.
Immunoblot and RT-qPCR assays were performed as previously described (Timmins et al., 2009). Total RNA was extracted from HCs using the RNeasy kit (Qiagen). cDNA was synthesized from 2 μg total RNA using oligo (dT) and Superscript II (Invitrogen). Nuclear extraction from liver was performed using the Nuclear Extraction Kit from Panomics according to the manufacturer's instructions.

[2] = test system: cytosolic free calcium; assay: Calcium mobilization in primary hepatocytes (Fura-2 imaging); type: cell-based, mouse; conditions: co-/pre-treatment with inhibitor
Description: Mouse primary hepatocytes were plated on glass coverslips and loaded with 5 μM Fura-2 acetoxymethyl ester (Molecular Probes) in the presence of 0.025% (w/v) pluronic F127 (Sigma-Aldrich) in Media 199 (Mediatech) for 30 minutes. […] The ratio of fluorescence intensity at the two excitation wavelengths was calculated after subtracting background fluorescence. [Ca2+]I (cytosolic free calcium concentration) was calculated using a Fura-2 calcium imaging calibration kit (Invitrogen). Images were collected and analyzed using the MetaFluor software package (Universal Imaging Corp.). Graphs represent average responses from groups of 30-40 individual cells from representative single experiments. Bar graphs represent average responses (fold over average baseline) from 150-200 cells per condition. All experiments were repeated at least three times with similar results.

[3] = test system: IP3R; assay: IP3R activity in FAO hepatocytes (Inositol/ATP-induced calcium release assay); type: cell-based, rat
From the text: FIGS. 49A-S. The role of IP3R in forskolin/glucagon-induced G6Pase/PEPCK in cultured hepatocytes and in fasting blood glucose in vivo. FIG. 49 A,B. FSK-Induced G6Pase and PEPCK is Calcium-Dependent. FIG. 49C-D. IP3R Activity is Required for Forskolin- and Glucagon-Induced G6Pase and PEPCK (FAO rat hepatocyte cell line). FIG. 49E-F. IP3R Activity is Required for Forskolin-Induced G6Pase and PEPCK (primary murine hepatocytes). FIG. 49G-H. IP3R1 Anti-Sense Oligonucleotide Suppresses Forskolin-Induced G6Pase and PEPCK (primary murine hepatocytes). FIG. 49I. Forskolin Activates IP3R Activity in FAO Hepatocytes (Inositol/ATP-Induced Calcium Release Assay). FIG. 49J. The PKA Inhibitor H89 Suppresses Forskolin-Induced IP3R Activation. FIG. 49K-L. IP3R Activity is Required for Forskolin-Induced PGC1a. FIG. 49M-N. Calcineurin Inhibitory Peptide Suppresses Forskolin-Induced G6Pase and PEPCK. FIG. 49O. IP3R Activity is Required for Forskolin-Induced Calcineurin Activation. FIG. 49P-Q. IP3R Activity is Required for Forskolin-Induced TORC2 Dephosphorylation and Nuclear Localization. FIG. 49R. TORC2 Transduction Partially Restores Forskolin-Induced G6Pase in IP3R-Inhibited Hepatocytes. FIG. 49S. Xestospongin C Treatment Reduces Fasting Glucose Levels in C57BL/6J Mice.

[4] = test system: Akt; assay: Insulin-induced Akt phosphorylation in palmitate-treated primary mouse hepatocytes; type: cell-based; conditions: HCs with normal p38 (Ad-LacZ)
Description: FIGS. 92A-D. Inhibition of CaMKII or p38α Improves Insulin-induced Akt Phosphorylation in Palmitate-treated Primary Hepatocytes. FIG. 92A. Primary HCs from WT mice were transduced with adeno-LacZ or -K43A-CaMKII at an MOI of 10 and then 24 h later incubated with either BSA control or 0.2 mM palmitate for 19 h, with the last 5 h in serum-free media. The cells were then treated with 100 nM insulin or vehicle control for 5 min, and lysates were probed for p-Akt, total Akt, and β-actin by immunoblot (left panel) or immunoprecipitated for IRS-1 and then assayed by immunoblot for the total level of IRS-1 or for phospho-Tyr (PY) (right panel). FIG. 92B. HCs from Mapk14^fl/fl mice were transduced with adeno-LacZ or -Cre and 24 h later incubated with palmitate and then insulin as in FIG. 92A. Lysates were probed for p-Akt, total Akt, β-actin (upper panel), p-GSK3β, total GSK3β, p-FoxO1 and total FoxO1 by immunoblot or immunoprecipitated for IR and IRS-1 and then assayed by immunoblot for the total level of the respective proteins or for phospho-Tyr (lower panel). FIG. 92C. Primary human HCs (metabolism-controlled) were transduced with adeno-LacZ or -K43A-CaMKII at an MOI of 30 and then 36 h later incubated with either BSA control or 0.2 mM palmitate for 10 h, with the last 5 h in serum-free media. […]

[5] = test system: dach1 and dach2 mRNA; assay: dach1 and dach2 mRNA in primary mouse hepatocytes; type: cell-based; conditions: WT HCs, 0.5 mM, 6 h
Description: FIG. 115. Palmitate induces dach1 and dach2 mRNA levels. Primary HCs from WT mice were treated with 0.5 mM palmitate for 6 h. RNA was assayed for dach1 and dach2 mRNA by RT-qPCR (*p<0.05; mean±S.E.M.).

[6] = test system: TRB3; assay: TRB3 levels in primary mouse hepatocytes; type: cell-based; conditions: control HCs
Description: FIGS. 93A-E: Improvement in Insulin-induced Akt Phosphorylation and Glucose Homeostasis by CaMKII Deficiency are Abrogated by Restoring TRB3. FIG. 93A. HCs from Camk2g^fl/fl mice were transduced with adeno-LacZ or -Cre and then 24 h later incubated with BSA or palmitate (0.2 mM) for 19 h. Lysates were immunoblotted for TRB3 and β-actin. FIG. 93B. TRB3 and β-actin were probed in livers from DIO WT mice, Camk2g^−/− mice, or Camk2g^fl/fl mice treated with TBG-LacZ or TBG-Cre. Densitometric quantification of the immunoblot data is shown in the graph (*p<0.05; mean±S.E.M.). FIGS. 93C-E. DIO Camk2g^fl/fl mice were treated with TBG-Cre or TBG-LacZ, and five days later, half of the […] received adeno-TRB3, while the other half received adeno-LacZ control. Livers were assayed for p-Akt, total Aid, TRB3 and β-actin by immunoblotting after fasting the mice for 16 h and then re-feeding them for 4 h. 5 h fasting and fasted-refed blood glucose and plasma insulin were assayed after 4 weeks of treatment (Differing symbols indicate p<0.05; mean±S.E.M.). See also FIG. 99.

[7] = test system: ATF4; assay: Nuclear ATF4 in primary mouse hepatocytes; type: cell-based; conditions: control HCs
Description: FIGS. 94A-F: Improvement in Insulin-induced Akt Phosphorylation and Glucose Homeostasis by CaMKII Deficiency are Abrogated by Restoring ATF4. FIG. 94A. HCs from Camk2g^fl/fl mice were transduced with adeno-LacZ or -Cre. 24 h later, cells were incubated with tunicamycin (0.5 μg/ml) or vehicle control for 4 h. Nuclear lysates were immunoblotted for ATF4 and nucleophosmin (Np) as a loading control. FIG. 94B. Nuclear ATF4 and nucleophosmin (Np) were probed in livers from DIO Camk2g^fl/fl mice treated with TBG-Cre or TBG-LacZ or ob/ob mice treated with adeno-LacZ or -K43A-CaMKII. FIG. 94C. HCs from […] were transduced with adeno-LacZ or -Cre and then 4 h later, half of the adeno-Cre transduced cells received adeno-ATF4, while the other half received adeno-LacZ control. After 24 h, the cells were incubated with palmitate and then insulin-induced p-Akt was assayed as in FIG. 92. FIG. 94D. As in FIG. 94C, except that Trb3 mRNA was assayed by RT-qPCR (Bars with different symbols are different from each other and control, p<0.01; mean±S.E.M.). […] Livers were assayed for p-Akt, total Aid, β-actin and nuclear ATF4 and nucleophosmin (Np) by immunoblotting after insulin injection through portal vein. 5 h fasting blood glucose and plasma insulin were assayed after three weeks of treatment (Differing symbols indicate p<0.05; mean±S.E.M.). See also FIG. 100.

Cl.Cl.O=S(=O)(NCCNCC=Cc1ccc(Br)cc1)c1cccc2cnccc12 [H89, N-[2-[[3-(4-Bromophenyl)-2-propenyl]amino]ethyl]-5-isoquinolinesulfonamide dihydrochloride]
glucagon-induced CaMKII phosphorylation ([1]; HCs pre-treated with inhibitor, then glucagon): markedly inhibited | cytosolic calcium mobilization in response to glucagon (and forskolin) [2]: partially reversed | Forskolin-Induced IP3R Activation [3]: Suppresses

CCCCCCCCCCCCCCCC(=O)O [palmitate]
p-CaMKIIγ in HCs ([1]; ER stress activation): increased | insulin-induced p-Akt signal [4]: lowered | dach1 and dach2 mRNA levels [5]: induces | TRB3 levels [6]: increase

tunicamycin
ATF4 [7]: increased
